Measured values reported in patent publication US6660530B2, “Methods for labeling β-amyloid plaques and neurofibrillary tangles” (The Regents of the University of California, priority 1998, dated 2003).
Entries after “also recorded” stand apart in the source; their conditions may differ.

What was measured:
[1] = Standing of the free base at room temperature after neutralization (TLC); type: physicochemical; settings: light yellow oil after NaHCO3 wash
Protocol: Dichloromethane (10 mL) was added and the solution was washed with saturated NaHCO3 solution, dried, and evaporated in vacuo. A light yellow oil was obtained, which, on standing at room temperature, turned dark red. […] Selected ^1H NMR signals after neutralization: δ2.72 (s, 3H, CH3), 3.09 and 3.35 (t, J=5 Hz, 8H, piperazine), 7.08 (s, 1H, 5-H), 8.02 (s, 1H, 1-H).

[2] = molecular target: amyloid plaques in Alzheimer's brain (Homo sapiens, UniProt P05067); settings: cited from earlier work
[3] = molecular target: T1, plaque in Tg2576 HuAPPsw transgenic mouse brain (Homo sapiens, UniProt P05067); assay: In vitro fluorescence labeling of transgenic mouse brain section; type: binding
T1 construct: from tissue; host or cells: brain section of Tg2576 HuAPPsw transgenic mouse
Protocol: (§1) A 2.1 mg/mL DDNP stock solution was prepared, which was adjusted to 8 mM in 100% ethanol. A DDNP working solution was prepared by diluting the stock solution with distilled water in a ratio of 1:100-1000 (stock solution:distilled water). β-amyloid 250 μM (1.25 mg/mL in distilled water) was aggregated at 37° C. for 48 hours. 5 μL were smeared on slides, air-dried and then rehydrated with distilled water. Alternatively, Aβ-positive brain tissue sections were rehydrated with distilled water. DDNP working solution was applied to each slide for 30 minutes at room temperature. The slides were washed three times for five minutes with distilled water. The slides were coverslipped with fluorescent protectant mounding media (VectashieldTM, available Vector Labs., Burlingame, Calif.) and observed under a fluorescence microscope with a thioflavin S or FITC filter.

[4] = tested on: β-amyloid plaques and neurofibrillary tangles; assay: In vitro fluorescence labeling of Alzheimer's disease brain tissue sections; type: binding, human; settings: for visualization of neurofibrillary tangles, amyloid peptides and diffuse amyloid: all Alzheimer's disease brain specimens, fluorescence; for fluorescent labeling of amyloid plaques: sections of Alzheimer's disease patient brain, fluorescence microscope
Protocol: (§2) A 2.1 mg/mL DDNP stock solution was prepared, which was adjusted to 8 mM in 100% ethanol. A DDNP working solution was prepared by diluting the stock solution with distilled water in a ratio of 1:100-1000 (stock solution:distilled water).
as §1, with “β-amyloid” for “A 2.1 mg/mL DDNP stock solution was prepared, which was adjusted to 8 mM in 100% ethanol. A DDNP working solution was prepared by diluting the stock solution with distilled water in a ratio of 1:100-1000 (stock solution:distilled water). β-amyloid”, “(Vectashield™,” for “(VectashieldTM,”
Since DDNP and its derivatives are fluorescent, an evaluation of the ability of [F-18]FDDNP to label β-amyloid plaques and neurofibrillary tangles in vitro was also performed with the same brain specimens.
In FIG. 5, the central image was obtained by immunostaining a forty five micrometer cryostate temporal cortex section of an Alzheimer's disease patient incubated with AT8 (anti-phosphotau) and 10G4 (anti-AB1-15) at 1:800. Insets are adjacent sections of the same Alzheimer's disease brain specimen stained with FDDNP. Images were generated using fluorescent scanning microscopy. Green arrows indicate approximate origin of inset with reference to central immunostaining section.

[5] = molecular target: T2, aggregated β-amyloid 1-40 injected into rat cortex (Homo sapiens, UniProt P05067); assay: In vivo labeling of aggregated β-amyloid injected into rat cortex
T2 construct: an aliquot of β-amyloid 1-40 was allowed to aggregate
Protocol: β-amyloid 250 μM (1.25 mg/mL in distilled water) was aggregated at 37° C. for 48 hours to produce fibrils confirmed by smears. Three rats were anesthetized. 3 μL of a solution of Aβ fibrils (1.25 μg/μL) were injected unilaterally into the cortex of each rat (Bregma 0, AP-4.1 mm, ML+2.0 mm, DV-3.1 mm). Then 3 μL of phosphate buffered saline (PBS) were injected into the contralateral side of each rat brain as a vehicle control. After injection, the needle remained for 5 minutes to prevent reflux, and then the cranial hole was sealed with bone wax. […]
[…] Additional immersion fixation of rat brain was at 4° C. overnight with PLP fixative. The rat brains were washed with PBS, saturated in 10 and 20% sucrose, and snap frozen in chilled isopentane (−70° C.) with liquid nitrogen. The brains were cryostat sectioned at […] around the needle-track and directly coverslipped with glycerol and fluorescence protectant (Vectashield™).

β-amyloid 1-40 = molecular target: T3, β-amyloid 1-40 (Homo sapiens, UniProt P05067); assay: Labeling of aggregated β-amyloid dried onto a slide; type: binding; settings: aggregated 8 days at 37° C., dried onto gelatin coated slide
T3 construct: an aliquot of β-amyloid 1-40 was allowed to aggregate
Protocol: […] 5 μL were smeared on slides, air-dried and then rehydrated with distilled water. Alternatively, Aβ-positive brain tissue sections were rehydrated with distilled water. DDNP working solution was applied to each slide for 30 minutes at room temperature. The slides were washed three times for five minutes with distilled water. The slides were coverslipped with fluorescent protectant mounding media (Vectashield™, available Vector Labs., Burlingame, Calif.) and observed under a fluorescence microscope with a thioflavin S or FITC filter.

[6] = Storage of stock solution in the freezer; type: physicochemical; settings: stock in 100% ethanol, used at 1/100 to 1/1,000 dilutions
Protocol: as §2

[7] = tested on: β-amyloid plaques and neurofibrillary tangles; assay: PET imaging of patients after intravenous [F-18]FDDNP; type: in vivo, human
Protocol: A patient was placed in a tomograph to obtain brain dynamic PET images. 8.0 mCi of 2-(1.1-dicyanopropen-2-yl)-6-(2-[^18F]-fluoroethyl)-methylamino)-naphthalene ([F18]FDDNP) (specific activity: 5-12 Ci/micromol; mass:˜1 nanomol), prepared as described in Example 1(f), were injected intravenously into the arm of the patient. Dynamic acquisition data of brain images were recorded simultaneously in forty-seven brain planes for two hours.
Labeling and detection of human β-amyloid plaques and neurofibrillary tangles in vivo were conducted using the following procedures. Ten human subjects, seven Alzheimer's diseased patients (ages 71 to 80) and three control patients (ages 62 to 82) were studied. The patients were positioned supine in an EXACT HR+962 tomograph (Siemens-CTI, Knoxville, Tenn.) with the imaging plane parallel to the orbito-meatal line. Venous catheterization was performed, and then [F-18]FDDNP (5-10 mCi) in human serum albumin (25%) was administered as a bolus via the venous catheter. Sequential emission scans were obtained beginning immediately after [F-18]FDDNP administration using the following scan sequence: six 30 second scans, four 3 minute scans, five 10 minute scans, and three 20 minute scans. Rapid venous blood sampling was performed via the indwelling catheter in two subjects for input function determination and plasma metabolite analysis.
The residence time shown is in reference to that in the pons, an area known to have limited involvement in Alzheimer's disease pathology. The residence time was calculated from the clearance rates of the tracer in affected regions of interest (ROI) and in the pons as:
Residence time=[1/clearance rate for affected ROI]−[1/clearance rate for pons]
Separate ROIs were defined in entorhinal cortex, hippocampus, lateral temporal cortex and pons. The region with the slowest clearance rate was used as the affected ROI in the calculation of the residence time shown in FIG. 4.

[8] = tested on: β-amyloid plaques and neurofibrillary tangles; assay: In vitro autoradiography with brain specimens of Alzheimer diseased patients; type: binding, human

T2 sequence (P05067 672-711 limits assumed): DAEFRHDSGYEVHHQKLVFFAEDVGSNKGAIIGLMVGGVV
T1 sequence (P05067 672-713 limits assumed): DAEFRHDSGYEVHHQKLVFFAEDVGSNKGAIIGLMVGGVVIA
Chain of amyloid plaques in Alzheimer's brain (P05067 672-713 limits assumed): as above
T3 sequence (P05067 672-711 limits assumed): as the sequence (P05067 672-711 limits assumed) above

Molecule: CC(=C(C#N)C#N)c1ccc2cc(N3CCNCC3)ccc2c1 [2-[1-(6-piperazino-2-naphthyl)ethylidene]malononitrile]
- stability on standing at room temperature [1]: decomposition

Molecule: O=C(O)c1cc(/N=N/c2ccc(-c3ccc(/N=N/c4ccc(O)c(C(=O)O)c4)cc3)cc2)ccc1O [Chrysamine G]
- ability to label amyloid plaques in Alzheimer's brain [2]: weak

Molecule: CC(=C(C#N)C#N)c1ccc2cc(N(C)C)ccc2c1 [DDNP, 2-(1,1-dicyanopropen-2-yl)-6-dimethylaminonaphthalene]
- melting point: 154.5 to 155 °C
- fluorescent labeling of plaque [3]: labeling of a plaque
- visualization of neurofibrillary tangles, amyloid peptides and diffuse amyloid [4]: excellent visualization
- fluorescent labeling of tangles ([4]; cortex of the brain of an Alzheimer's disease patient): weak
- fluorescent labeling of amyloid plaques [4]: able to label amyloid plaques; also recorded: readily labeled amyloid deposits; also recorded: amyloid plaques labeled; also recorded: strong; also recorded: labeling of a single, large plaque with an amyloid core
- fluorescent labeling after formic acid treatment of section through the injection site ([5]; rat): removes fluorescent labeling
- in vivo fluorescent labeling of injected amyloid ([5]; rat, 100 μL of 640 μM DDNP into the carotid artery, sacrificed after 20 minutes, brain cryosections): fluorescently labeled amyloid at the tip of the need track
- labeling contralateral to the amyloid injection site ([5]; rat, side where no amyloid is present): weak
- passage of the blood brain barrier ([5]; rats): passes the blood brain barrier
- fluorescence of labeled aggregated β-amyloid 1-40 (β-amyloid 1-40): fibrillar fluorescence consistent with amyloid
- stability of stock solution [6]: can be kept in the freezer for six months and still produce acceptable results

Molecule: CC(=O)c1ccc2cc(N3CCN(C(=O)OC(C)(C)C)CC3)ccc2c1 [Example 1(d), tert-Butyl-4-(6-acetyl-2-naphthyl)-1-piperazinecarboxylate]
- melting point: 153 to 154 °C

Molecule: CC(=C(C#N)C#N)c1ccc2cc(N(C)CC[18F])ccc2c1 [[F-18]FDDNP]
- estimated residence time in reference to pons ([7]; Alzheimer's diseased patients vs control patients, affected ROI with slowest clearance rate): different from values in control patients
- labeling of brain structures / accumulation of label ([7]; human patient, 8.0 mCi intravenously, dynamic PET for two hours): labels brain by structures in a manner consistent with the presence of beta amyloid plaques and neurofibrillary tangles; also recorded: maximum accumulation
- regional clearance from brain ([7]; human, brain areas known to accumulate β-amyloid plaques and neurofibrillary tangles): slower clearance
- crossing of the blood brain barrier ([7]; human, intravenous injection): crosses the blood brain barrier readily in proportion to blood flow
- retention of activity in hippocampus-amygdala-entorhinal cortex ([7]; human, most cases, even patients with low severity of symptoms): high retention
- binding / distribution of activity in autoradiography [8]: Binding was observed in hippocampus, temporal and parietal cortex
- visualization of neurofibrillary tangles, amyloid peptides and diffuse amyloid [4]: excellent visualization
- structures stained (FIG. 5 insets) ([4]; temporal cortex sections of an Alzheimer's disease patient, fluorescent scanning microscopy): (1) neuritic plaques, (2) diffuse plaque, (3) vascular amyloid, (4) dense plaques and tangles, and (5) dense tangles

Molecule: Thioflavin S [reference compound]
- fluorescent labeling of amyloid plaques [4]: labeling of a cored plaque
